Values joined by “and” are separate entries in the source; they are usually repeats but may differ in a detail not shown here. Identical values can stand only once. “Also recorded” adds a separate entry of the source.
Tests used:
[1] = DPPH radical scavenging activity (cell-free); settings: for DPPH radical scavenging activity (in words): cell-free, DPPH 150 µM
Procedure: DPPH radical scavenging activities of test compounds were assessed as previously described. Briefly, the reaction mixture containing desired concentrations of test compounds and DPPH radical solution (150 µM) prepared in 95% methanol was incubated for 30 min at 37 °C. The absorbance of the mixture was measured at 520 nm in a microplate reader (SpectraMax M2e). The radical scavenging activity was calculated using the following equation:DPPH radical scavenging activity (%) = 100 × (Abscontrol − Abssample)/Abscontrol where Abscontrol and Abssample represent the absorbances in the absence and in the presence of test compounds, respectively.

PC12 cells = test: Rotenone-induced ROS generation in PC12 cells (H2-DCFDA); assay type: cell-based, rat; settings: 10 μM compound, rotenone 1 μM 20 h
Procedure: The involvement of oxidative stress in the observed reduction in cell viability was investigated using the fluorescent dye H2-DCFDA as described previously. Briefly, cells were loaded with 10 μM H2-DCFDA for 30 min at 37 °C. Subsequently, cells were exposed for 4 h to 10 μM of test compounds followed by the addition of 50 μM 6-OHDA or 1 μM rotenone for 20 h, and fluorescence was measured spectrophotometrically at 488/520 nm in a microplate reader (SpectraMax M2e). N-acetylcysteine (NAC, 5 mM) was included as a […] control for oxidative stress.

[2] = molecular target: T1, Human recombinant MAO-B (hMAO-B) (Homo sapiens, UniProt P27338); test: MAO-B inhibition assay (Amplex Red fluorescence, benzylamine substrate); assay type: biochemical; settings: for IC50: five doses 10, 1, 0.1, 0.01, 0.001 μM, triplicate; for Selectivity Index (SI): ratio of IC50 (MAO-A)/IC50 (MAO-B); for % Inhibition of MAO-B at 10 µM / inhibition at 10 µM: single dose 10 µM
T1 construct: purchased Sigma-Aldrich; host or cells: insect cells
T1 sequence (P27338 1-520): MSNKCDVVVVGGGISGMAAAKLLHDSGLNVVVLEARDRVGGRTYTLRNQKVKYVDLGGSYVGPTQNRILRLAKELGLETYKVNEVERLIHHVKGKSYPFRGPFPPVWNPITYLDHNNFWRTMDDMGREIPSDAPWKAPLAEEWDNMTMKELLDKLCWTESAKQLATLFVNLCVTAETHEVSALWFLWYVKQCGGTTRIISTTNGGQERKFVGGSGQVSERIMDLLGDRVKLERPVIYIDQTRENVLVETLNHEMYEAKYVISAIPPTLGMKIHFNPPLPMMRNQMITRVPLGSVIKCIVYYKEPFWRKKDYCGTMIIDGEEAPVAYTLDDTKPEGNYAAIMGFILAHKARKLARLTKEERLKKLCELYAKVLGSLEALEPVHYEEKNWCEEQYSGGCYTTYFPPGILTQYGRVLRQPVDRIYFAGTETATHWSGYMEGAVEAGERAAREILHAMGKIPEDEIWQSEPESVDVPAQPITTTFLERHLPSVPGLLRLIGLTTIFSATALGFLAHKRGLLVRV
Procedure: The biological evaluation of the tested compounds over both MAO-A and MAO-B was performed following the previously reported method. The MAO activity was measured in relative fluorescence units (RFU) evoked by peroxidase-catalyzed oxidation of Amplex Red® to resorufin, in which H2O2 generated by MAO reaction was used as the electron donor. Human recombinant MAO-A (hMAO-A) and MAO-B (hMAO-B) enzymes expressed in insect cells were obtained from Sigma-Aldrich. The 2 μL of test compound in DMSO (final concentration: 1–10 μM) was treated with 98 μL of hMAO enzyme solution in 50 mM sodium phosphate buffer (pH 7.4, final protein amounts: ~1.25 μg protein/well for MAO-A and ~2.5 μg protein/well for MAO-B) on 96-well black plate and incubated for 15 min at 37 °C. Then, 100 μL of reaction working solution which is a mixed solution of 400 μM Amplex Red® (Cayman, final concentration: 200 μM), 2 U/mL horseradish peroxidase (Sigma-Aldrich, final concentration: 1 U/mL) and 2 mM substrate (p-tyramine for MAO-A, benzylamine for MAO-B, Sigma-Aldrich, final concentration: 1 mM) in 50 mM sodium phosphate buffer (pH 7.4) were added and incubated for 20 min at 37 °C in the dark. The fluorescent intensity was quantified using a microplate reader (SpectraMax®i3, Molecular Device) with an excitation at 545 nm and an emission at 590 nm. The 50% inhibitory concentrations (IC50) of compounds were determined as the mean ± S.E.M. in triplicate from the dose-response inhibition curves using SigmaPlot® 13.0 (Systat Software Inc., San Jose, CA, USA).

Compound: O=C(Nc1ccc(Br)cc1)c1ccc2[nH]ccc2c1 [Compound 8b, N-(4-bromophenyl)-1H-indole-5-carboxamide]
- Maximal DPPH radical scavenging effect ([1]; 30 and 100 µM): approximately 10%
- DPPH radical scavenging activity (in words) [1]: mild DPPH radical scavenging activity; also recorded: mild DPPH radical scavenging activities
- Effect on rotenone-induced intracellular ROS production (PC12 cells): attenuated
- IC50 [2]: 30 nM and 30.5 nM
- Selectivity Index (SI) [2]: >3278
- % Inhibition of MAO-B at 10 µM [2]: 99.4 ± 0.0%
- inhibition at 10 µM [2]: > 99%

Compound: COC(=O)c1ccc2c(ccn2C(=O)c2ccc(Cl)c(Cl)c2)c1 [Compound 7b, Methyl 1-(3,4-dichlorobenzoyl)-1H-indole-5-carboxylate]
- DPPH radical scavenging activity (in words) [1]: mild DPPH radical scavenging activities
- Effect on rotenone-induced intracellular ROS production (PC12 cells): attenuated
- IC50 [2]: 330 nM and 328 nM
- Selectivity Index (SI) [2]: >305
- inhibition at 10 µM [2]: 84.1%

Compound: O=C(Nc1ccc(I)cc1)c1ccc2[nH]ccc2c1 [Compound 8a, N-(4-iodophenyl)-1H-indole-5-carboxamide]
- Effect on rotenone-induced intracellular ROS production (PC12 cells): not effective
- IC50 [2]: 27.4 nM
- Selectivity Index (SI) [2]: >3649
- % Inhibition of MAO-B at 10 µM [2]: 99.3 ± 0.0%
- inhibition at 10 µM [2]: > 99%

Compound: O=C(Nc1ccc2c(c1)OCO2)c1ccc2[nH]ccc2c1 [Compound 8e, N-(benzo[d][1,3]dioxol-5-yl)-1H-indole-5-carboxamide]
- DPPH radical scavenging activity (in words) [1]: mild DPPH radical scavenging activities
- Effect on rotenone-induced intracellular ROS production (PC12 cells): attenuated
- IC50 [2]: 450 nM and 453 nM
- Selectivity Index (SI) [2]: >220
- inhibition at 10 µM [2]: 89.6 ± 0.4%

From article PMC8533206 (Antioxidants, 2021)
